Measurements published in publication PMC6120666 (The EMBO Journal, 2018).
Blank lines part the entries; values can stand above or below the molecule they belong to.

Legend:
[1] = target: T1, NanoLuc-RIPK2 (Homo sapiens, UniProt O43353); assay: nanoBRET cellular RIPK2 target engagement assay in HEKBlue cells; conditions: average ± SD of at least three titrations, read-out: IC50, Cellular activity, nanoBRET RIPK2 binding
T1 construct: host or cells: hNOD2-HEKBlue cells

[2] = test system: RIPK2 ubiquitination in U2OS/NOD2 and THP-1 cells; assay: Purification of Ub-conjugates (TUBE pulldown), RIPK2 ubiquitination; type: cell-based, human; conditions: U2OS/NOD2 or THP-1 cells, L18-MDP 200 ng/ml, 1 h
Method: For co‐immunoprecipitation of HA‐XIAP with RIPK2, transfected and treated cells were lysed in TBS buffer containing 0.5% NP‐40, cOmplete and PhosSTOP inhibitors (Roche) and the lysate was cleared by centrifugation. The lysates were incubated with anti‐HA‐agarose overnight, washed 3× with lysis buffer, and analyzed by immunoblotting. For GST pulldown experiments, U2OS/NOD2 cells were lysed in TBS lysis buffer containing 0.5% NP‐40, cOmplete and PhosSTOP inhibitors (Roche). Cleared lysates were pretreated with kinase inhibitors or DMSO and incubated with GST‐XIAP‐BIR2 bound to Glutathione Sepharose at 4°C overnight. Bound material was washed 3× with lysis buffer or PBS, eluted with 15 mM Glutathione in PBS, and analyzed by immunoblotting. […] The bound material was eluted and analyzed as described above. […]
PBS, eluted with 15 mM Glutathione in PBS and analyzed by immunoblotting. […]

[3] = target: T2, proteins of U2OS cell lysate (Homo sapiens, UniProt O75533); assay: Drug affinity chromatography with c-ponatinib and LC-MS/MS (ponatinib interactome); type: binding
T2 construct: Proteins enriched by c-ponatinib from U2OS cell lysate; endogenous in cells; host or cells: U2OS cell lysate
Method: (§1) Drug affinity chromatography
(§2) U2OS cells were grown until approximately 80% confluent before being pelleted and washed with PBS. Cell pellets were subsequently lysed in buffer A (50 mM Tris pH 7.5, 0.8% v/v NP-40, 5% v/v glycerol, 1.5 mM MgCl2, 100 mM NaCl, 25 mM NaF, 1 mM Na3VO4, 1 mM PMSF, 1mM DTT, 10 μg/mL TLCK, 1 μg/ml Leupeptin, 1 μg/ml Aprotinin, 1 μg/ml soy bean trypsin) and lysates prepared […]
(§3) concentration was determined and lysates stored at -80 °C.
(§4) Briefly, 100 μl of bead slurry (50% in isopropanol) were used for each pulldown experiment. Beads were washed with DMSO (3 × 500 μl), and resuspended in DMSO (50 μl), to which the amine (0.025 μmol) and triethylamine (0.75 μl) were added. The beads were incubated at room temperature for 16 h, and depletion of free amine from the supernatant was determined by LC-MS analysis. Ethanolamine (2.5 μl) was then added to block any unreacted NHS sites, and the beads incubated for a further 16 h. Derivatized beads were then washed with DMSO (3 × 500 μl), buffer A (3 × 1 ml), and incubated with cell lysates (2 mg of protein per pulldown, at 6 […]
(§5) Beads and treated lysates were incubated for 2 h at 4 °C before washing with buffer A (5 ml), Buffer B (50 mM HEPES pH 7.5, 100 mM NaCl, 500 μM EDTA, 2.5 ml), and eluted with formic acid (100 mM, 250 μl). Samples were neutralized with triethylammoniumbicarbonate (TEAB, 1M, 62.5 μl) and stored at -20 °C until preparation for proteomic analysis.
(§6) Samples were reduced with DTT (10 mM final concentration) for 30 min at room temperature, alkylated with iodoacetamide (55 mM final concentration) for 30 min at room temperature, diluted to 300 μl with TEAB, and incubated with trypsin (6 μl, 0.2 mg/ml) overnight at 37 °C. The digests were desalted using SEPAC lite columns (Waters), eluted with 69 % v/v MeCN, 0.1 % v/v FA in H2O (1 ml) and dried in vacuo. Dried peptides were stored at -20 °C before resuspension in 2 % v/v MeCN, 1 % v/v FA in H2O (20 μl) for LC-MS/MS analysis.
(§7) LC-MS/MS data acquisition
(§8) Mass spectrometry data was acquired at the Discovery Proteomics Facility (University of Oxford).
(§9) Digested samples were analyzed by nano-UPLC–MS/MS using a Dionex Ultimate 3000 nano UPLC with EASY spray column (75 μm × 500 mm, 2 μm particle size, Thermo Fisher Scientific) with a 60 min gradient of 0.1 % (v/v) formic acid in 5 % (v/v) DMSO to 0.1 % (v/v) formic acid with 35 % (v/v) acetonitrile in 5 % (v/v) DMSO at a flow rate of approximately 250 nl min−1 (600 bar per 40 °C column temperature). Mass spectrometry data was acquired either with an Orbitrap Q Exactive (Survey scans acquired at a resolution of 70,000 @ 200m/z and the 15 most abundant precursors were selected for HCD fragmentation), or an Orbitrap Q Exactive High Field (HF) instrument (survey scans were […]

[4] = target: T3, proteins of U2OS cell lysate (Homo sapiens, UniProt P07900); assay: as above; type: binding
T3 construct: Proteins enriched by c-ponatinib from U2OS cell lysate; endogenous in cells; host or cells: U2OS cell lysate
Method: as §1, §2, §3, §4, §5, §6, §7, §8, §9

[5] = target: T4, proteins of U2OS cell lysate (Homo sapiens, UniProt P13073); assay: as above; type: binding
T4 construct: Proteins enriched by c-ponatinib from U2OS cell lysate; endogenous in cells; host or cells: U2OS cell lysate
Method: as §1, §2, §3, §4, §5, §6, §7, §8, §9

[6] = target: T5, proteins of U2OS cell lysate (Homo sapiens, UniProt P28074); assay: as above; type: binding
T5 construct: Proteins enriched by c-ponatinib from U2OS cell lysate; endogenous in cells; host or cells: U2OS cell lysate
Method: as §1, §2, §3, §4, §5, §6, §7, §8, §9

[7] = target: T6, proteins of U2OS cell lysate (Homo sapiens, UniProt P30049); assay: as above; type: binding
T6 construct: Proteins enriched by c-ponatinib from U2OS cell lysate; endogenous in cells; host or cells: U2OS cell lysate
Method: as §1, §2, §3, §4, §5, §6, §7, §8, §9

[8] = target: T7, proteins of U2OS cell lysate (Homo sapiens, UniProt P49006); assay: as above; type: binding
T7 construct: Proteins enriched by c-ponatinib from U2OS cell lysate; endogenous in cells; host or cells: U2OS cell lysate
Method: as §1, §2, §3, §4, §5, §6, §7, §8, §9

[9] = target: T8, proteins of U2OS cell lysate (Homo sapiens, UniProt P62263); assay: as above; type: binding
T8 construct: Proteins enriched by c-ponatinib from U2OS cell lysate; endogenous in cells; host or cells: U2OS cell lysate
Method: as §1, §2, §3, §4, §5, §6, §7, §8, §9

[10] = target: T9, proteins of U2OS cell lysate (Homo sapiens, UniProt Q16643); assay: as above; type: binding
T9 construct: Proteins enriched by c-ponatinib from U2OS cell lysate; endogenous in cells; host or cells: U2OS cell lysate
Method: as §1, §2, §3, §4, §5, §6, §7, §8, §9

[11] = target: T10, proteins of U2OS cell lysate (Homo sapiens, UniProt Q92598); assay: as above; type: binding
T10 construct: Proteins enriched by c-ponatinib from U2OS cell lysate; endogenous in cells; host or cells: U2OS cell lysate
Method: as §1, §2, §3, §4, §5, §6, §7, §8, §9

[12] = target: T11, proteins of U2OS cell lysate (Homo sapiens, UniProt Q99460); assay: as above; type: binding
T11 construct: Proteins enriched by c-ponatinib from U2OS cell lysate; endogenous in cells; host or cells: U2OS cell lysate
Method: as §1, §2, §3, §4, §5, §6, §7, §8, §9

[13] = target: T12, proteins of U2OS cell lysate (Homo sapiens, UniProt Q99832); assay: as above; type: binding
T12 construct: Proteins enriched by c-ponatinib from U2OS cell lysate; endogenous in cells; host or cells: U2OS cell lysate
Method: as §1, §2, §3, §4, §5, §6, §7, §8, §9

[14] = target: T13, proteins of U2OS cell lysate (Homo sapiens, UniProt Q9UBN7); assay: as above; type: binding
T13 construct: Proteins enriched by c-ponatinib from U2OS cell lysate; endogenous in cells; host or cells: U2OS cell lysate
Method: as §1, §2, §3, §4, §5, §6, §7, §8, §9

T1 sequence (O43353 whole entry): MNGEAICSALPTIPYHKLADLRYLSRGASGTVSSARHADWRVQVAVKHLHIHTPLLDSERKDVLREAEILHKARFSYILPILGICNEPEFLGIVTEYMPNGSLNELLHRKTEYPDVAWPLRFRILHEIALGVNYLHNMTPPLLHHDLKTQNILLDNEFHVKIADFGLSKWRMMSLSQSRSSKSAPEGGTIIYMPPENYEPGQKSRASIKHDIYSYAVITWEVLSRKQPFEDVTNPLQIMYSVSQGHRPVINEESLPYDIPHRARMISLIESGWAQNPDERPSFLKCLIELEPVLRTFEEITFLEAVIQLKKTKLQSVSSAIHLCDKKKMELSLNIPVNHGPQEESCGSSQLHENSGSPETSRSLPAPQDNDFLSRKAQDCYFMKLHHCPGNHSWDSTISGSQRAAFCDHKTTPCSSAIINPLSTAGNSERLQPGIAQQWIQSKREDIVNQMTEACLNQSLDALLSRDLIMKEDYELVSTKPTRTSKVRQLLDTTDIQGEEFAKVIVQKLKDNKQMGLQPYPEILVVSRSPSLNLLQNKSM
T11 sequence (Q99460 whole entry): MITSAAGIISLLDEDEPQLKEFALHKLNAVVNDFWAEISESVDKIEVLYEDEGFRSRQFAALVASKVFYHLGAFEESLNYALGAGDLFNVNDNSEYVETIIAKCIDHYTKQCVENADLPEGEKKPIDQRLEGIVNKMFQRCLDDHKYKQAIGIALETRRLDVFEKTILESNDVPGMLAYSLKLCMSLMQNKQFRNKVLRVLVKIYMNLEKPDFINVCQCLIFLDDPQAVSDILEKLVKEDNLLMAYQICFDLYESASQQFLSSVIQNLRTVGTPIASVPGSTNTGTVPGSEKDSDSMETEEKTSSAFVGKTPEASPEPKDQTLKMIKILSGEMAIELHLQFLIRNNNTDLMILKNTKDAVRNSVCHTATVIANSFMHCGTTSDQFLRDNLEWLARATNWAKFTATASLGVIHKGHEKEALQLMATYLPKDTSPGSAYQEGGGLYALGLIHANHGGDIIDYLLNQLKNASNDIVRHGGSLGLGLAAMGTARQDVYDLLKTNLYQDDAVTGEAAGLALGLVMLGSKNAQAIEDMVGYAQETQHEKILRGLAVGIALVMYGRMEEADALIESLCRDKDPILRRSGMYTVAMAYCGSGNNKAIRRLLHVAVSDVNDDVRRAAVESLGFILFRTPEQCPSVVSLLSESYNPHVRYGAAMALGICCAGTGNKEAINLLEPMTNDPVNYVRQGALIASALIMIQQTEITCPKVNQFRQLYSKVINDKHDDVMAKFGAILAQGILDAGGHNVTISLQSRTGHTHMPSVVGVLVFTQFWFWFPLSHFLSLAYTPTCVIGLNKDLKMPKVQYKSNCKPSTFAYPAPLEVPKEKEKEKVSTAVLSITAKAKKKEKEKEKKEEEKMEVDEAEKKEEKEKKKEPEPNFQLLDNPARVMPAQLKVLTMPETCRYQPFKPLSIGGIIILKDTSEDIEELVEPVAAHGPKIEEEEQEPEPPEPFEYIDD
T13 sequence (Q9UBN7 whole entry): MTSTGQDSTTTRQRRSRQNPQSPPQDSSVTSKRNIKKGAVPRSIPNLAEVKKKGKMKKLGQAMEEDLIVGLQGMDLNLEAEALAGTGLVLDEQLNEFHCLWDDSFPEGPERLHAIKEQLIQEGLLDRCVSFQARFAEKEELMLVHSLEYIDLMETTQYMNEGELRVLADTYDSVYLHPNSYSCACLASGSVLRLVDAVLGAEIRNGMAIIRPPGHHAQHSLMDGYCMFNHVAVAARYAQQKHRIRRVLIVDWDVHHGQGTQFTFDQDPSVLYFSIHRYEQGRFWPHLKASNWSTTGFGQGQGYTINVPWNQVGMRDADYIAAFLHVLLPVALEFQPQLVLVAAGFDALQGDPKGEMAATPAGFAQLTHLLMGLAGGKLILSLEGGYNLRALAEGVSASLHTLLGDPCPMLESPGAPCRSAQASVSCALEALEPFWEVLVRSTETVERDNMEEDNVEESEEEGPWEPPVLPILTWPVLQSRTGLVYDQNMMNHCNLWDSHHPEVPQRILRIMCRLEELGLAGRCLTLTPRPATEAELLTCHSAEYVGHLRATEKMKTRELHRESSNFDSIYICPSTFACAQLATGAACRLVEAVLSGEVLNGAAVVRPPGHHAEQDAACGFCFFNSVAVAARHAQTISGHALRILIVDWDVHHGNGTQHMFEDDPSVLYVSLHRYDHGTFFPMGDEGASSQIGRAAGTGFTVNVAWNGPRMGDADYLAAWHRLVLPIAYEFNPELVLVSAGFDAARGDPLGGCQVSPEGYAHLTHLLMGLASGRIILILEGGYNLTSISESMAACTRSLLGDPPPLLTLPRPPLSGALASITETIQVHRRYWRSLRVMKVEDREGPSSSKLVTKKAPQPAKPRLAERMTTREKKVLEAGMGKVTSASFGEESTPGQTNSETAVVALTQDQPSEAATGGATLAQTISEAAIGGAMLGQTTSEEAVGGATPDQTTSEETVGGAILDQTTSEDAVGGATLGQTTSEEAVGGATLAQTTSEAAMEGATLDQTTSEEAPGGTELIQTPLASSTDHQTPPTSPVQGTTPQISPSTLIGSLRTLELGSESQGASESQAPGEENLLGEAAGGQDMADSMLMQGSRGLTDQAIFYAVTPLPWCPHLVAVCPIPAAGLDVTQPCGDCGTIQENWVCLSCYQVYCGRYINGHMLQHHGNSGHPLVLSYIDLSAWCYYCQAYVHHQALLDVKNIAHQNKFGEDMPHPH
T4 sequence (P13073 23-169): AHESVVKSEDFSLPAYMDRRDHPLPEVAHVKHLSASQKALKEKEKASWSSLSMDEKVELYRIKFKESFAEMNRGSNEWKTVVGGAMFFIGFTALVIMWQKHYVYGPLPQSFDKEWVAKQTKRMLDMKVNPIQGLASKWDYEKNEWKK
T7 sequence (P49006 whole entry): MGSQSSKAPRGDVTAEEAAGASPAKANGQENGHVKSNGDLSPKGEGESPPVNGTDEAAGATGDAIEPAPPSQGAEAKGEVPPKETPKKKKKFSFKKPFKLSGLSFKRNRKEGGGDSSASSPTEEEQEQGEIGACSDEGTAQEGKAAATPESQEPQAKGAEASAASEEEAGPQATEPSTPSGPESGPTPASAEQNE
T5 sequence (P28074 60-263): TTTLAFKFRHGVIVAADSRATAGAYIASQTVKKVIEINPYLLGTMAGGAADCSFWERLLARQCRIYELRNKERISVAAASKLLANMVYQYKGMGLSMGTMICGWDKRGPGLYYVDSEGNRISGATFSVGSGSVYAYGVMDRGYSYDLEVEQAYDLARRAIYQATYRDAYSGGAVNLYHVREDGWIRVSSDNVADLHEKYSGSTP
T12 sequence (Q99832 whole entry): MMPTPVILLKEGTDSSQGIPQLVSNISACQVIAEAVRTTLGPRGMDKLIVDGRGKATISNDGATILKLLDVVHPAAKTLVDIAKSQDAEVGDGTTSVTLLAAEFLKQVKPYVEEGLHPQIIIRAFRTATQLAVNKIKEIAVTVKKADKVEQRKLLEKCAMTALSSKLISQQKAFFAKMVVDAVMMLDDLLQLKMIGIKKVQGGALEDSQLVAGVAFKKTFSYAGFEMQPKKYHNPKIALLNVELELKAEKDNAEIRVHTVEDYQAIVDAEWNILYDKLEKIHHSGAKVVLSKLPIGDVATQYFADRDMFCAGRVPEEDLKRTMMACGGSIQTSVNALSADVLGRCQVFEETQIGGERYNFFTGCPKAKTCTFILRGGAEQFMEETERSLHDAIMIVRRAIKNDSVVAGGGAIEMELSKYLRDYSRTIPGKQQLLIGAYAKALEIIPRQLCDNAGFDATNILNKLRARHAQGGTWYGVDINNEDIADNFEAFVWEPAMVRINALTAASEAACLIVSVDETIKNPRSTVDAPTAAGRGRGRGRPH
T10 sequence (Q92598 whole entry): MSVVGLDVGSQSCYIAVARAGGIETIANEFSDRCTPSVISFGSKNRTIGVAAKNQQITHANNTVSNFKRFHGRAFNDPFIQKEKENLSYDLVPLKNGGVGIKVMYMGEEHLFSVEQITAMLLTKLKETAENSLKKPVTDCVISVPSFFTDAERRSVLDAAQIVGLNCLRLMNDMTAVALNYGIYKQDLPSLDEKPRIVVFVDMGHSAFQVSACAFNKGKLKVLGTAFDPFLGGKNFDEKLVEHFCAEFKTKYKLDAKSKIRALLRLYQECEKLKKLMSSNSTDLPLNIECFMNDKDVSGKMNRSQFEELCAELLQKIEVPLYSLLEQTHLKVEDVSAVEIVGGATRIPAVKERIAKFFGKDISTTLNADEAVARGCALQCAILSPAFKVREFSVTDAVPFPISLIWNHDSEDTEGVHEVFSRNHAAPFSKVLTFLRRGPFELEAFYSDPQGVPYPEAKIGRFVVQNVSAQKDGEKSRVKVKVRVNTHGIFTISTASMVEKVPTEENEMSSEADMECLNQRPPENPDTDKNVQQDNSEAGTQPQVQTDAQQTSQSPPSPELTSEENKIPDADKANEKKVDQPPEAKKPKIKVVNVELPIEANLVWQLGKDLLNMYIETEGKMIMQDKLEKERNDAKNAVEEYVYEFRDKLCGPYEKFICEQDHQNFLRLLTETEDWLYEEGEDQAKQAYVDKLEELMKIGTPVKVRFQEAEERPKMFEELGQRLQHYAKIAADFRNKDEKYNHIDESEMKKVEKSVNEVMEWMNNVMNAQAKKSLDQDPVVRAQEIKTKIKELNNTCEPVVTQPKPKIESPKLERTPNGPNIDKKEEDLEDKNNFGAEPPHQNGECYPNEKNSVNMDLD
T6 sequence (P30049 23-168): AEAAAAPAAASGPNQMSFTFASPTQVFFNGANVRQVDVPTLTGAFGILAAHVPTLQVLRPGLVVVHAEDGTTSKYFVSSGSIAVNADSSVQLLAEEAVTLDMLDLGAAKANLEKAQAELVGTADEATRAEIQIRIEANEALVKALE

IC50 [1]: 36.3 ± 20.2 nM
SMILES: CCCS(=O)(=O)Nc1cc(-c2cc(-c3ccc(N4CCNCC4)cc3)cnc2N)cc(F)c1OC [CSLP37]
RIPK2 ubiquitination after L18-MDP [2]: inhibited RIPK2 ubiquitination

SMILES: CCCS(=O)(=O)Nc1cc(-c2cc(-c3ccc(N4CCNCC4)cc3)cnc2N)cc(OC)c1OC [CSLP43]
IC50 [1]: 10.1 ± 3.8 nM
RIPK2 ubiquitination after L18-MDP [2]: inhibited RIPK2 ubiquitination

IC50 [1]: 1230 nM
SMILES: CCCS(=O)(=O)Nc1cc(-c2cc(-c3ccc(N4CCNCC4)cc3)cnc2N)ccc1O [CSLP48]
RIPK2 ubiquitination after L18-MDP [2]: little or no effect

SMILES: COc1cc(-c2cc(-c3ccc(N4CCNCC4)cc3)cnc2N)cc(F)c1OC [CSLP55]
IC50 [1]: 195 ± 47.1 nM
RIPK2 ubiquitination after L18-MDP [2]: little or no effect

SMILES: Cc1ccc(C(=O)Nc2ccc(CN3CCN(C)CC3)c(C(F)(F)F)c2)cc1C#Cc1cnc2cccnn12 [PON]
Average LFQ PON_WT ([3]; SF3B1, Splicing factor 3B subunit 1): 22.352
Average LFQ PON_WT ([4]; HSP90AA1, Heat shock protein HSP 90-alpha): 21.9345
Average LFQ PON_WT ([5]; COX4I1, Cytochrome c oxidase subunit 4 isoform 1, mitochondrial): 21.5292
Average LFQ PON_WT ([6]; PSMB5, Proteasome subunit beta type-5): 21.73
Average LFQ PON_WT ([7]; ATP5D, ATP synthase subunit delta, mitochondrial): 23.0608
Average LFQ PON_WT ([8]; MARCKSL1, MARCKS-related protein): 21.5548
Average LFQ PON_WT ([9]; RPS14, 40S ribosomal protein S14): 22.2776
Average LFQ PON_WT ([10]; DBN1, Drebrin): 22.4964
Average LFQ PON_WT ([11]; HSPH1, Heat shock protein 105 kDa): 22.355
Average LFQ PON_WT ([12]; PSMD1, 26S proteasome non-ATPase regulatory subunit 1): 21.8552
Average LFQ PON_WT ([13]; CCT7, T-complex protein 1 subunit eta): 22.9495
Average LFQ PON_WT ([14]; HDAC6, Histone deacetylase 6): 22.8295

IC50 [1]: 521 ± 172 nM
SMILES: Cc1ccc(-c2nn(C(C)(C)CNC(=O)c3ccncc3)c3ncnc(N)c23)cc1 [WEHI‐345, reference compound]

SMILES: Cc1ccc(C(=O)Nc2ccc(CN3CCN(CCCN)CC3)c(C(F)(F)F)c2)cc1C#Cc1cnc2cccnn12 [c-ponatinib, reference compound]
Average LFQ intensity ([3]; captured protein SF3B1, Rank 165): 22.352
Average LFQ intensity ([4]; captured protein HSP90AA1, Rank 195): 21.9345
Average LFQ intensity ([5]; captured protein COX4I1, Rank 227): 21.5292
Average LFQ intensity ([6]; captured protein PSMB5, Rank 211): 21.7301
Average LFQ intensity ([7]; captured protein ATP5D, Rank 121): 23.0608
Average LFQ intensity ([8]; captured protein MARCKSL1, Rank 225): 21.5548
Average LFQ intensity ([9]; captured protein RPS14, Rank 169): 22.2776
Average LFQ intensity ([10]; captured protein DBN1, Rank 158): 22.4964
Average LFQ intensity ([11]; captured protein HSPH1, Rank 164): 22.3551
Average LFQ intensity ([12]; captured protein PSMD1, Rank 199): 21.8552
Average LFQ intensity ([13]; captured protein CCT7, Rank 127): 22.9495
Average LFQ intensity ([14]; captured protein HDAC6, Rank 137): 22.8295
